# Experimental data taken from US20130123358A1, “Metabolic Benefits to Butyrate as a Chronic Diet Supplement” (priority 2009, published 2013).
# Tests used:
# pigs = details: dietary; cited from earlier work
# [1] = tested on: IRS-1 and Akt phosphorylation; experiment: Insulin signaling immunoblot in gastrocnemius muscle after insulin injection; type: in vivo, mouse; details: butyrate 5% w/w in HFD 13 weeks, 30 min after insulin 0.75 U/kg
# Source text: Fresh fat and muscles were collected and frozen in liquid nitrogen. The whole cell lysate protein was extract in lysis buffer with sonication and analyzed in western blot as described elsewhere (16). Antibodies were used in study of myoglobin (sc-25607, Santa Cruz), PGC-1 (sc-13068, Santa Cruz), Tubulin (ab7291, Abcam), myosin (M8421, Sigma), pAMPK (Thr 172, #2531, Cell signaling) and p-p38 (sc-7975, Santa Cruz). To detect multiple signals from one membrane, the membrane was stripped with a stripping buffer. Intensity of the immunoblot signal was quantified using a computer program, ImageJ 1.37v (NIH). The mean values of results from three experiments (6 mice each group) were presented. The antibodies to PGC-1α and UCP-1 were from Dr. Thomas Gettys at Pennington Biomedical Research Center, Baton Rouge, La.
# Tail vein blood was used for the glucose assay after 16 hr fasting during the period of HFD feeding. […] The insulin was determined at 16 weeks on HFD in fasting condition with Lincoplex kit (#MADPK-71k-03, Linco Research Inc., St. Charles, Mo.). […] After an overnight fast, blood glucose and insulin were measured and used to determine insulin sensitivity through HOMA IR (IR=fasting insulin […] X fasting glucose mg/dL÷405). […] FIG. 2F illustrates the degree of the blot signal in the panel 2E, by quantifying the signal and normalizing with protein loading. **P<0.001 (n=2).
# liver cells = details: isolated rat liver; cited from earlier work
# HDAC = experiment: Histone deacetylase assay on muscle nuclear extracts of treated mice; type: in vivo, mouse; details: butyrate 5% w/w in HFD, 16 weeks on HFD, muscle nuclear extracts
# Experimental: Histone deacetylase assay were conducted according to the instruction from the manufacturer (#17-320, Upstate). Briefly, 10 ug of muscle nuclear extract (as an enzyme) was incubated with [3H]-acetyl CoA (#TRK688, Amersham) radio labeled histone H4 peptide (25,000 CPM, as a substrate) at 37° C. for 12 hours by shaking Released [3H]-acetate was measured using a scintillation counter. The nuclear extract was prepared according to a protocol described elsewhere (17). The muscle tissues were collected and snap-frozen in liquid nitrogen within 2 min of cervical dislocation of mice. Tissue samples were stored at −80° C. until further processing. The muscle sample of 200˜300 mg was cut into small pieces on dry ice and homogenized in 1 ml of lysate buffer. After centrifugation at 10,000 rpm for 1 minute at 4° C., the nucleus was pelleted and collected. After being washed, the nucleus pellet was treated with extraction buffer. The supernatant was collected for nuclear protein after centrifugation at 14,000 rpm for 5 minutes at 4° C.
# Without wishing to be bound by this theory, one activity of butyrate could be related to inhibition of HDAC. Sodium butyrate inhibits the class I and class II histone deacetylases (HDACs). To test this possibility, HDAC activity was examined in the skeletal muscle of mice at 16 weeks on HFD (FIG. 7G). The assay was conducted with the nuclear extracts of muscle samples. […]
# [2] = tested on: C57BL/6J mice on high fat diet; experiment: Butyrate at 2.5% w/w in HFD; type: in vivo, mouse; details: butyrate 2.5% w/w in HFD
# Experimental: Sodium butyrate (#303410, Sigma) was tested at two dosages, 5% and 2.5% w/w in HFD. The metabolic effects presented above were from 5%. […] Insulin sensitivity at 12 weeks as indicated by insulin tolerance test (ITT) and glucose tolerance test (GTT) at 13 weeks was higher in the butyrate group than that of the control group (FIGS. 12C and 12D). For the glucose tolerance test, after an overnight fast, 2.5 g/kg glucose was injected intraperitoneally. Blood glucose was measured as described above at 0, 30, 60 and 120 min after injection. […] show values as the means±SE (N=8 in each group), and * indicates p<0.05.
# [3] = tested on: C57BL/6J mice on high fat diet; experiment: Blood lipids and TNF-a in HFD mice; type: in vivo, mouse
# Experimental: The serum fatty acids including butyrate were examined using a protocol described elsewhere (18), and as described below in Example 10. The fatty acids in feces were determined using a protocol as described by Schwarz (19). Triglyceride and cholesterol were measured in the whole blood with the Cardiochek portable test system.
# Levels of cholesterol, total triglyceride and inflammation cytokines (TNF-a) were elevated in the blood of dietary obese mice. With 5% SB supplementation, these risk factors for cardiovascular disease were all reduced in the mice (FIG. 10A-E). Blood samples were taken from control and butyrate-supplemented mice at 10 weeks on HFD. The cholesterol, HDL (high density lipoprotein), LDL (low density lipoprotein), and triglyceride were measured with cholesterol reagent kit (cat #. 80015, Rainchem, San Diego, Calif.), and the Cardiochek whole blood test system (Polymer Technology Systems, Inc. IN). Data are presented as means±SEM (n=6). **P<0.001 by Student's t test.
compound,measurement,setting,value
CCCC(=O)[O-].[Na+] [sodium butyrate],daily body mass gain,pigs,increase
same,threonine 308 phosphorylation of Akt,[1],increased
same,tyrosine 632 (Y632) phosphorylation of IRS-1,[1],increased
same,energy metabolism (liver cells),liver cells,impairment
same,"HDAC activity in skeletal muscle, reduction",HDAC,50%
same,body weight,[2]; 12 weeks,reduced
same,insulin sensitivity by insulin tolerance test (ITT),[2]; 12 weeks,higher
same,fat content,"[2]; 12 weeks, NMR",reduced
same,insulin sensitivity by glucose tolerance test (GTT),"[2]; 13 weeks, 2.5 g/kg glucose i.p.",higher
same,"LDL, reduction vs control","[3]; 5% SB in HFD, 10 weeks, blood",41%
same,"Triglyceride, reduction vs control","[3]; 5% SB in HFD, 10 weeks, blood",40%
same,"total cholesterol, reduction vs control","[3]; 5% SB in HFD, 10 weeks, blood",25%
same,"TNF-a, reduction vs control","[3]; 5% SB in HFD, 10 weeks, blood, Luminex",70%
same,blood total fatty acids,[3]; butyrate 5% w/w in HFD,decreased
